Measured values reported in ChEMBL document CHEMBL1143726, “Indole alkaloids produced by a marine fungus isolate of Penicillium janthinellum Biourge” (2007).
Active and inactive are the calls of the source. No cut-off for these calls is given here.

Assays:
[1] = tested on: HL-60; assay: Induction of apoptosis in human HL60 cells at 100 uM after 24 hrs by flow cytometry relative to control; type: functional
[2] = tested on: C1 41; assay: Cytotoxicity against mouse JB6 C1 41 cells up to 200 uM by MTS assay; type: functional, cell-based
[3] = Inhibition of EGF-induced malignant transformation of mouse JB6 C1 41 cells in soft agar; type: functional

For `CC1(C)C=C2c3cc4[nH]c5c(c4cc3C[C@@H]2C(C)(C)O1)C[C@@H]1CC[C@@]2(O)C3=CC(=O)[C@@H]4O[C@@]3(CC[C@]2(C)[C@@]51C)OC4(C)C` [SHEARININE A], the Activity [1] was 10% and the Activity [2] was “inactive”.
For `CC(C)=CCc1cc2[nH]c3c(c2cc1CC=C(C)C)C[C@@H]1CC[C@@]2(O)C4=CC(=O)[C@@H]5O[C@@]4(CC[C@]2(C)[C@@]31C)OC5(C)C`, the Activity [2] was “inactive”.
For `CC1(C)C=C2c3cc4[nH]c5c(c4cc3[C@@H](O)[C@@H]2C(C)(C)O1)C[C@@H]1CC[C@@]2(O)C3=CC(=O)[C@@H]4O[C@@]3(CC[C@]2(C)[C@@]51C)OC4(C)C` [SHEARININE D], the Activity [1] was 39% and the Activity [2] was “inactive”.
In the case of `CC1(C)C=C2c3cc4[nH]c5c(c4cc3[C@H](O)[C@@H]2C(C)(C)O1)C[C@@H]1CC[C@@]2(O)C3=CC(=O)[C@@H]4O[C@@]3(CC[C@]2(C)[C@@]51C)OC4(C)C` [SHEARININE E], the INCC50 [3] is reported as 13 µM, the Activity [1] is reported as 34% and the Activity [2] is reported as “inactive”.
